Patent EP0467365A2, “Use of a 5-hydroxytryptamine-3(5-HT3) receptor antagonist for the preparation of a pharmaceutical composition for treating urinary incontinence” (E.R. SQUIBB & SONS, INC., priority 1990, dated 1992)
Entries after “also recorded” stand apart in the source; their conditions may differ. Structures can show the parent of a compound that is named as a salt. Where two headings read alike, the source gives them in different places.

Tests used:
Format in all cases: cell-based
[1] = test system: rabbit bladder strips; assay: 5-HT-induced contraction of rabbit bladder (detrusor) strips, organ bath tension recording; details: for inhibition of the 5-HT contractions: atropine 10^-7M, α,β-methylene ATP 10^-6M; for antagonism of the 5-HT-induced contraction / pA2: 30 minutes exposure; for antagonism of the 5-HT-induced contraction: BRL 43694 5 x 10^-11 to 2 x 10^-10M, ICS 205930 5 x 10^-12 to 1 x 10^-10M, MDL 72222 5 x 10^-10 to 5 x 10^-9M; for pA2: antagonism of 5-HT-induced contraction, rabbit detrusor strips, Schild plot, mean ± s.e.mean; for atropine and α,β-methylene ATP-resistant component of 5-HT-induced contraction: bladder strips, in presence of atropine and α,β-methylene ATP; for effect on the contractile response to 5-HT: ketanserine 10^-7 to 10^-6M, methysergide and metitepine 10^-8 to 10^-7M, anterior detrusor of female rabbits
[2] = test system: urethra; assay: 5-HT-induced contraction of rabbit urethra strips, organ bath tension recording; details: 30-second application, 10^-6 to 10^-3M
[3] = test system: rabbit bladder; assay: Contractile response of rabbit bladder strips to electrical field stimulation of intrinsic nerves; details: for effect on the response to field stimulation: α,β-methylene ATP dose-dependent, all frequencies

Compound: NCCc1c[nH]c2ccc(O)cc12 [5-HT, 5-Hydroxytryptamine creatinine sulphate complex]
- contraction in the rabbit bladder ([1]; 30-second application, 10^-8 to 10^-3M): dose-dependent contraction
- contraction in the urethra [2]: dose-dependent contraction

Compound: CN1[C@@H]2CC[C@H]1CC(OC(=O)C(CO)c1ccccc1)C2.CN1[C@@H]2CC[C@H]1CC(OC(=O)C(CO)c1ccccc1)C2.O=S(=O)(O)O (stereo partly drawn) [Atropine, Atropine sulphate]
- inhibition of the 5-HT contractions [1]: partially inhibited
- inhibition of the response to field stimulation (maximum) ([3]; 20 minute pretreatment, 10^-8 to 10^-6M, maximum at high frequencies): 40%
- control response to field stimulation still persisting ([3]; atropine 10^-8 to 10^-6M, 5-50 Hz, posterior detrusor of male rabbits): approximately 60%
- effect on the response to field stimulation ([3]; atropine 10^-8 to 10^-6M): only partially inhibited

Compound: CN1C2CCCC1CC(NC(=O)c1nn(C)c3ccccc13)C2 (stereo not drawn) [BRL 43694, [endo]N-(9-methyl-9-azabicyclo-[3,3,1]-non-3-yl)-1-methyl-1H-indazole-3-carboxamide hydrochloride]
- antagonism of the 5-HT-induced contraction ([1]; hydrochloride): strongly and competitively antagonized; also recorded: dose-dependent inhibition
- antagonism of the 5-HT-induced contraction ([1]; listed as BRL 43695, hydrochloride): effective at blocking
- pA2 [1]: 10.5 ± 0.01
- atropine and α,β-methylene ATP-resistant component of 5-HT-induced contraction [1]: not abolished

Compound: CN1[C@@H]2CC[C@H]1C[C@@H](OC(=O)c1c[nH]c3ccccc13)C2 [ICS 205930, 3a-tropanyl-1 H-indole-3-carboxylic acid ester]
- antagonism of the 5-HT-induced contraction [1]: strongly and competitively antagonized; also recorded: effective at blocking
- antagonism of the 5-HT-induced contraction ([1]; listed as ICS 205-930): most potent antagonistic effect
- pA2 [1]: 12.5 ± 0.36
- atropine and α,β-methylene ATP-resistant component of 5-HT-induced contraction [1]: not abolished

Compound: CN1[C@@H]2CC[C@H]1C[C@@H](OC(=O)c1cc(Cl)cc(Cl)c1)C2 [MDL 72222, laH,3a,5aH-tropan-3-yl-3,5-dichlorobenzoate]
- antagonism of the 5-HT-induced contraction [1]: strongly and competitively antagonized; also recorded: dose-dependent inhibition; also recorded: effective at blocking
- pA2 [1]: 9.3 ± 0.04
- atropine and α,β-methylene ATP-resistant component of 5-HT-induced contraction [1]: not abolished
- effect on the contraction to field stimulation ([3]; 10^-7M): no effect

Compound: NC1=N[C@H](O)[C@H]2[C@H]3O[C@]4(O)O[C@@H]([C@@H](O)[C@@]2(N1)[C@@H]4O)[C@]3(O)CO [TTX, Tetrodotoxin]
- effect on the 5-HT-induced contraction of the rabbit bladder [1]: did not affect; also recorded: no effect
- abolition of the responses to field stimulation [3]: complete; also recorded: completely blocks

Compound: C[N+](C)(C)CCCCCC[N+](C)(C)C [hexamethonium, Hexamethonium bromide]
- effect on the 5-HT-induced contraction of the rabbit bladder [1]: did not affect; also recorded: not blocked

Compound: CC[C@@H](CO)NC(=O)[C@@H]1C=C2c3cccc4c3c(cn4C)C[C@H]2N(C)C1 [methysergide, Methysergide bimaleate]
- atropine and α,β-methylene ATP-resistant component of 5-HT-induced contraction [1]: not abolished
- effect on the contractile response to 5-HT [1]: no significant effect

Compound: Cc1ccc(N(CC2=NCCN2)c2cccc(O)c2)cc1 [phentolamine, Phentolamine mesylate]
- effect on the 5-HT-induced contraction of the rabbit bladder [1]: did not affect; also recorded: not blocked

Compound: COc1cc2nc(N3CCN(C(=O)c4ccco4)CC3)nc(N)c2cc1OC [prazosin, Prazosin hydrochloride]
- effect on the 5-HT-induced contraction of the rabbit bladder ([1]; hydrochloride): did not affect; also recorded: not blocked

Compound: Nc1ncnc2c1ncn2C1OC(COP(=O)(O)CP(=O)(O)OP(=O)(O)O)C(O)C1O (stereo not drawn) [α,β-methylene ATP, α,β-Methyleneadenosine 5'-Triphosphate]
- inhibition of the 5-HT contractions [1]: partially inhibited
- inhibition of the response to field stimulation ([3]; 10^-6M): about 35%
- effect on the response to field stimulation ([3]; atropine 10^-8 to 10^-6M): dose-dependent inhibition

Compound: Ketanserine tartrate
- atropine and α,β-methylene ATP-resistant component of 5-HT-induced contraction [1]: not abolished
- effect on the contractile response to 5-HT [1]: no effect
- effect on the contractile response to 5-HT ([1]; listed as ketanserine): no significant effect

Compound: Metitepine monomethanesulfonate
- atropine and α,β-methylene ATP-resistant component of 5-HT-induced contraction [1]: not abolished
- effect on the contractile response to 5-HT [1]: no significant effect
